The values below are quoted from earlier work in patent publication US9610295B2, “Method for treating erectile dysfunction” (priority 2010, dated 2017).

Molecules are shown by their SMILES.

For series [1] the following is noted: in vivo.
For series [2] the following is noted: oral administration, Viagra formulation.
Series [3] addresses phosphodiesterase type 5 (PDE5) (Homo sapiens, UniProt O76074). As to conditions: PDE5 vs PDE6.

With `CN1CC(=O)N2[C@H](c3ccc4c(c3)OCO4)c3[nH]c4ccccc4c3C[C@@H]2C1=O` [tadalafil, (6R-trans)-6-(1,3-benzodioxol-5-yl)-2,3,6,7,12,12a-hexahydro-2-methylpyrazino[1,2:1,6]-pyrido[3,4-6]indole-1,4-dione], the half-life result in series [1] is “about 17.5 hours”.
Regarding `CCCc1nn(C)c2c(=O)[nH]c(-c3cc(S(=O)(=O)N4CCN(C)CC4)ccc3OCC)nc12` [sildenafil, 1-[[3-(6,7-dihydro-1-methyl-7-oxo-3-propyl-1H-pyrazolo[4,3-d]pyrimidin-5-yl)-4-ethoxyphenyl]sulfonyl]-4-methyl piperazine], the absolute bioavailability entry in series [2] is “about 40%”. Besides, the “potency for PDE5 compared to PDE6” value in series [3] was “about 10 fold”.
